From PMC12040169 (PLOS Biology, 2025)

Test: in vitro
Settings: human, hela cells

| Structure (SMILES) | viability at 28.5 h, 10 µM |
| --- | --- |
| O=C(O)c1n[s+][n-]c1-c1cc([N+](=O)[O-])cc([N+](=O)[O-])c1O [CBK261584] | 97.2% |

Same assay, conditions: human, hela cells, % viability

| Structure (SMILES) | viability at 28.5 h, 10 µM |
| --- | --- |
| CN1CCN(CCC(=O)N/N=C/c2ccccn2)CC1 [CBK261501] | 114% |
| CN1CCN(CCC(=O)N/N=C/c2c[nH]c3ccccc23)CC1 [CBK261502] | 94.7% |
| CN1CCN(CCC(=O)N/N=C/c2ccsc2)CC1 [CBK261505] | 94.8% |
| COc1c2c(nc3ccccc13)OC(C(C)(O)CO)C2 (stereo not drawn) [CBK261506] | 87.6% |
| Cc1ccc2nc(-c3ccc(N)cc3)sc2c1S(=O)(=O)O [CBK261510] | 96.3% |
| [O-][N+]1=C2CCc3c(no[n+]3[O-])C2(O)CC1N1CCOCC1 (stereo not drawn) [CBK261515] | 112% |
| CN1CCN(Cc2ccccc2[N+](=O)[O-])CC1 [CBK261524] | 85.5% |
| O=C(O)CN(CC(=O)O)S(=O)(=O)c1ccc(Cl)cc1 [CBK261526] | 92.2% |
| CCN(CC)Cc1c(O)ccc2c(C#N)c(C)n(-c3ccccc3)c12 [CBK261527C] | 94.9% |
| O=C(O)CCCC(=O)Nc1cccc([N+](=O)[O-])c1 [CBK261530] | 101% |
| COc1cccc(CN(C)C2CCN(C)CC2)c1OC [CBK261532] | 97.7% |
| NS(=O)(=O)c1ccc(/N=C/c2cccc(O)c2O)cc1 [CBK261533] | 87.8% |
| COc1cc2c(cc1OC)CN(Cc1ccccc1[N+](=O)[O-])CC2 [CBK261535] | 89.8% |
| NS(=O)(=O)c1ccc(NC(=O)CCCOc2ccc(Cl)cc2Cl)cc1 [CBK261536] | 104% |
| CCOC(=O)C1CCCCN1Cc1ccc(O)c(OC)c1 (stereo not drawn) [CBK261541] | 96.9% |
| CCOc1ccc(NC(=O)C2C3c4ccccc4C(c4ccccc43)C2C(=O)O)cc1 (stereo not drawn) [CBK261544] | 102% |
| O=C(Nc1ccc(-c2nc(-c3ccccc3)c3cc(NC(=O)c4cccs4)ccc3n2)cc1)c1cccs1 [CBK261547] | 86% |
| O=[N+]([O-])c1ccc(O)c(/C=N/c2ccc3cc4ccc(/N=C/c5cc([N+](=O)[O-])ccc5O)cc4nc3c2)c1 [CBK261557] | 57.4% |
| Oc1ccc(CN2CCN(c3ncccn3)CC2)cc1 [CBK261567] | 105% |
| O=[N+]([O-])c1ccc(Cl)cc1CN1CCN(C/C=C/c2ccccc2)CC1 [CBK261568] | 106% |
| COc1ccc(CN2CCN(c3ccccn3)CC2)cc1O [CBK261570] | 90.5% |
| CN1CCC(N(C)Cc2cc(Cl)ccc2[N+](=O)[O-])CC1 [CBK261576] | 91.1% |
| CCn1c2ccccc2c2cc(CN3CCN(c4ccccc4OC)CC3)ccc21 [CBK261579] | 85.4% |
| CCc1nc2ccccc2c(NC(=O)CN2CCCCCC2)c1C [CBK261580G] | 90.3% |
| COc1cc(CN2CCN(C/C=C/c3ccccc3)CC2)cc(Br)c1O [CBK261582] | 101% |
| Cc1ccc2nc(-c3ccc(/N=C/c4cccc(O)c4O)cc3)sc2c1 [CBK261583] | 96% |

| Structure (SMILES) | viability at 28.5 h, 10 µM |
| --- | --- |
| NS(=O)(=O)c1ccc(/N=C/c2ccc(OCc3ccccc3)cc2)cc1 [CBK261585] | 98.3% |
| O=C(COc1ccc2ccccc2c1)OCC(=O)c1ccc([N+](=O)[O-])cc1 [CBK261586] | 88.2% |
| COc1cc(CN2CCc3c([nH]c4ccccc34)C2)c([N+](=O)[O-])cc1OC [CBK261588] | 90.6% |
| O=C(Nc1ccc2nc(-c3ccc(-c4nc5ccc(NC(=O)c6cccs6)cc5[nH]4)cc3)[nH]c2c1)c1cccs1 [CBK261590] | 87.1% |
| O=C(N/N=C/c1ccc([N+](=O)[O-])cc1)c1ccc(O)cc1O [CBK261591] | 105% |
| CCOc1ccc(NC(=O)C2C3C=CC(O3)C2C(=O)O)cc1 (stereo not drawn) [CBK261592] | 91.7% |
| CCOC(=O)c1c(C)n(-c2ccccc2)c2ccc(O)c(CN(C)C)c12 [CBK261593C] | 91% |
| NS(=O)(=O)c1ccc(/N=C/c2cccc(OCc3ccccc3)c2)cc1 [CBK261594] | 92.1% |
| O=C(CN1CCCCCC1)N/N=C/c1ccc(F)c(Br)c1 [CBK261596] | 94.7% |
| O=C(O)CCC(=O)Nc1ccc2c(c1)oc1ccccc12 [CBK261597] | 86.3% |
| O=C(N/N=C/c1cc([N+](=O)[O-])ccc1Cl)c1ccc(O)c(O)c1 [CBK261599] | 112% |
| CC(=O)Nc1ccc(C(=O)Nc2ccc(S(N)(=O)=O)cc2)cc1 [CBK261600] | 95.3% |
| O=[N+]([O-])c1ccc(Cl)c(C2N(Cc3ccccc3)CCN2Cc2ccccc2)c1 [CBK261601] | 93.4% |
| Cc1cccc(C(=O)Nc2ccc(-c3nnc(-c4ccc(NC(=O)c5cccc(C)c5)cc4)o3)cc2)c1 [CBK261603] | 106% |
| N#CC1=C(N)Oc2cc(N)ccc2C1c1ccc(-c2ccccc2)cc1 (stereo not drawn) [CBK261605] | 91.3% |
| COc1cccc(C(=O)NNC(=O)Nc2ccccc2)c1 [CBK261608] | 91.8% |
| CCOC(=O)c1c(C)n(-c2ccc(OC)cc2)c2ccc(O)c(CN(C)C)c12 [CBK261609C] | 88% |
| CC(C)CC(C(=O)O)N1C(=O)/C(=C2/C(=O)Nc3ccc(Br)cc32)SC1=S (stereo not drawn) [CBK261610] | 84.7% |
| O=C(Nc1ccc(-c2nc3cc(-c4nc5cc(NC(=O)c6cccs6)ccc5[nH]4)ccc3[nH]2)cc1)c1cccs1 [CBK261614] | 97.6% |
| CCN1CCN(CC(=O)N/N=C/c2ccc(F)cc2)CC1 [CBK261615] | 108% |
| CC(=O)Nc1ccc(/C=N/NC(=O)CN2CCCCCCC2)cc1 [CBK261617] | 88.8% |
| N#Cc1c(NC(=O)CN2CCCCC2)sc2c1CCCC2 [CBK261619] | 89.6% |
| O=P(O)(COc1ccccc1)COc1ccccc1 [CBK261620] | 88.8% |
| COC(=O)C1=C(C(=O)OC)SC(=C2C(=S)C(C)(C)N(C(=O)c3ccc4ccccc4c3)c3cc(C)ccc32)S1 [CBK261622] | 116% |
| O=C1/C(=C/NNc2nc3ccccc3s2)Sc2ccccc21 [CBK261627] | 96.4% |
| Oc1c(-c2ccc(Cl)cc2)c2nc3ccccc3nc2c2ccccc12 [CBK261628] | 87.7% |

| Structure (SMILES) | viability at 28.5 h, 10 µM |
| --- | --- |
| Oc1ccc(Br)cc1/C=N/c1ccc(-c2cc(-c3ccc(/N=C/c4cc(Br)ccc4O)cc3)ncn2)cc1 [CBK261630] | 115% |
| Cc1ccccc1NC(=O)/C(=C\c1cccnc1)NC(=O)c1ccccc1 [CBK261632] | 93.9% |
| Cc1nc2ccccn2c1-c1csc(Nc2ccc(C(=O)O)cc2)n1 [CBK261634B] | 74.4% |
| O=[N+]([O-])c1ccc(-c2ccc(/N=C/c3ccco3)cc2)cc1 [CBK261639] | 92.2% |
| O=C(N/N=C/c1ccccc1)c1ccccn1 [CBK261640] | 92.8% |
| Cc1cccc2cc(/C=C(\C#N)c3nc(-c4cc5ccccc5oc4=O)cs3)c(Cl)nc12 [CBK261642] | 85.4% |
| CCOC(=O)C1=C(C(=O)OCC)SC(=C2C(=S)C(C)(C)N(C(=O)c3ccc4ccccc4c3)c3ccccc32)S1 [CBK261643] | 103% |
| Nc1cccc(Oc2ccc(C(c3ccc(Oc4cccc(N)c4)cc3)(C(F)(F)F)C(F)(F)F)cc2)c1 [CBK261645] | 103% |
| O=C1/C(=C\Nc2cccc3cccnc23)Sc2ccccc21 [CBK261647] | 93.8% |
| CC1=CC(C)(C)N(CC(=O)c2ccc([N+](=O)[O-])cc2)c2c(C)cccc21 [CBK261652] | 103% |
| Cc1ccc(S(=O)(=O)c2ccc(C)c(S(=O)(=O)NC3CCCCC3)c2)cc1S(=O)(=O)NC1CCCCC1 [CBK261653] | 90% |
| N#CC(c1ccc(O)cc1)N1CCOCC1 (stereo not drawn) [CBK261659] | 116% |
| Oc1c(Cl)cc(Cl)cc1/C=N/c1ccc(-c2nc3ccc(/N=C/c4cc(Cl)cc(Cl)c4O)cc3[nH]2)cc1 [CBK261660] | 93.4% |
| C/C(=N\NC(=O)c1cccc(Cl)c1)c1ccccc1O [CBK261665] | 81.4% |
| O=C(COC(=O)c1cc(S(=O)(=O)N2CCCCC2)c(Cl)cc1Cl)c1ccccc1 [CBK261668] | 101% |
| NNS(=O)(=O)c1ccc(Oc2ccc([N+](=O)[O-])cc2)cc1 [CBK261669] | 95.9% |
| O=C(Oc1ccc(Cl)cc1)c1cc(S(=O)(=O)N2CCOCC2)ccc1Cl [CBK261670] | 99.6% |
| NNC(=O)COc1ccc(Cl)cc1Cl [CBK261671] | 92.6% |
| CCN(CC)Cn1nc(Nc2ccccc2)n(-c2ccccc2)c1=S [CBK261672] | 87.6% |
| CCOc1ccccc1/C=N/Nc1ccccc1[N+](=O)[O-] [CBK261673] | 94.7% |
| CCOC(=O)Cc1nc2ccccc2[nH]1 [CBK261674] | 102% |
| NC(=O)c1ccccc1/N=C/c1ccc([N+](=O)[O-])o1 [CBK261675] | 105% |
| Cc1cccc(C(=O)NNC(=O)c2cccc(Cl)c2)c1 [CBK261676] | 107% |
| NC(=O)c1cccc(NC(=O)/C=C/C(=O)O)c1 [CBK261678] | 96.8% |
| C(=N\c1ccc(-c2nc3ccc(/N=C/c4ccncc4)cc3[nH]2)cc1)/c1ccncc1 [CBK261681] | 89.8% |

Same assay, conditions: human, hela cells, % viability, bulk resorufin, single well

| Structure (SMILES) | viability at 28.5 h, 10 µM |
| --- | --- |
| Oc1ccc(CN2CCN(c3cccc(Cl)c3)CC2)cc1 [CBK261528] | 109% |
| Oc1cccc(CN2CCN(c3cccc(Cl)c3)CC2)c1 [CBK261543] | 90.1% |
| COc1ccc(CN2CCN(Cc3ccccc3)CC2)c(OC)c1 [CBK261553] | 115% |
| O=C(O)c1cccc(NC(=O)c2cc([N+](=O)[O-])cc([N+](=O)[O-])c2)c1 [CBK261555] | 92.8% |
| CCN1CCN(Cc2cc(Br)c(OC)cc2OC)CC1 [CBK261566] | 103% |
| O=[N+]([O-])c1ccccc1CN1CCN(c2ccccc2Cl)CC1 [CBK261572] | 92% |
| CCOc1ccccc1CN1CCN(C)CC1 [CBK261577] | 91% |
| O=C1NC(=O)C(=CNCCc2c[nH]c3ccccc23)C(=O)N1 [CBK261635] | 93.2% |
| O=C1NC(=O)N(c2ccc(Cl)cc2)C(=O)/C1=C\NCCCO [CBK261648] | 90.2% |
